Some results are limits rather than exact numbers.

The target of this assay is T1, PDE5A1 (Homo sapiens, UniProt O76074).
T1 construct: from tissue; host or cells: human platelets from fresh donor blood (10,000 x g supernatant of sonicated lysate)
In words: Inhibition of type 5 phosphodiesterase (PDE5) activity, modified SPA test with human platelet lysate. The conditions noted are these: 0.5 μM cGMP, read-out: PDE5A1 inhibitory values [measured as −log IC50 (mol/l)] (converted). In kind it is biochemical. Here is the method: Method for Measuring Inhibition of the Type 5 Phosphodiesterase (PDE5) Activity:
As a source for human PDE5, platelets are used. For that purpose, 150 ml fresh blood from human donors anticoagulated with citrate [final concentration 0.3% (w/v)] is centrifuged at 200 g for 10 min to obtain the so-called platelet-rich-plasma (PRP) as a supernatant. 1/10 volume of ACD solution (85 mM Na3-citrate, 111 mM D-glucose, 71 mM citric acid, pH 4.4) is added to 9/10 volume of PRP. After centrifugation (1,400 g, 10 min) the cell pellet is resuspended in 3 ml homogenization buffer (NaCl 140 mM, KCl 3.8 mM, EGTA (ethylene glycol tetraacetic acid) 1 mM, MgCl2 1 mM, Tris-HCl 20 mM, beta-mercaptoethanol 1 mM, pH 8.2) plus protease-inhibitor mix giving rise to the final concentrations of 0.5 mM Pefablock (Roche), 10 μM Leupeptin, 5 μM Trypsininhibitor, 2 mM Benzamidin and 10 μM Pepstatin A. The suspension is sonified and thereafter centrifuged for 15 min at 10,000 g. The resulting supernatant (platelet lysate) is used for enzymatic testings.
PDE5A1 activity is inhibited by the compounds of the present subject matter in a modified SPA (scintillation proximity assay) test, supplied by Amersham Biosciences (see procedural instructions “phosphodiesterase [3H]cAMP SPA enzyme assay, code TRKQ 7090”), carried out in 96-well microtitre plates (MTP's). The test volume is 100 μl and contains 20 mM Tris buffer (pH 7.4), 0.1 mg of BSA (bovine serum albumin)/ml, 5 mM Mg^2+, 1 μM motapizone, 10 nM PDE2 inhibitor 2-(3,4-dimethoxybenzyl)-7-[(1R,2R)-2-hydroxy-1-(2-phenylethyl)propyl]-5-methylimidazo[5,1-f][1,2,4]triazin-4(3H)-one, 0.5 μM cGMP (cyclic guanosine monophosphate) (including about 50,000 cpm of [3H]cGMP as a tracer), 1 μl of the respective compound dilution in dimethylsulfoxide (DMSO) and sufficient PDE5-containing platelet lysat (10,000×g supernatant, see above) to ensure that 10-20 wt % of the cGMP is converted under the said experimental conditions. […] After a preincubation of 5 min at 37° C., the reaction is started by adding the substrate (cGMP) and the assay is incubated for a further 15 min; after that, it is stopped by adding SPA beads (50 μl). In accordance with the manufacturer's instructions, the SPA beads had previously been resuspended in water, but are then diluted 1:3 (v/v) in water; the diluted solution also contains 3 mM […] (IBMX) to ensure a complete PDE activity stop. After the beads have been sedimented (>30 min), the MTP's are analyzed in commercially available luminescence detection devices. The corresponding IC50 values of the compounds for the inhibition of PDE activity are determined from the concentration-effect curves by means of non-linear regression.
Take `Cc1[nH]c2c(-c3c(OCC4CC4)ccc4c3OCO4)ncnc2c1C(=O)NC1CN(C(=O)C(C)O)CC1O` (mixture of isomers) [Example F10, Diastereomeric mixture of 4-[5-(Cyclopropylmethoxy)-1,3-benzodioxol-4-yl]-N-{(3R,4R)-4-hydroxy-1-[(2S)-2-hydroxypropanoyl]pyrrolidin-3-yl}-6-methyl-5H-pyrrolo[3,2-d]pyrimidine-7-carboxamide and 4-[5-(cyclopropylmethoxy)-1,3-benzodioxol-4-yl]N-{(3S,4S)-4-hydroxy-1-[(2S)-2-hydroxypropanoyl]pyrrolidin-3-yl}-6-methyl-5H-pyrrolo[3,2-d]pyrimidine-7-carboxamide]: the IC50 is below 1 nM. For `COc1ccc(-c2ncnc3c(C(=O)NC4CN(C(=O)C(C)O)CC4O)c(C)[nH]c23)c(OCC2CC2)c1` (mixture of isomers) [Example F40, Diastereomeric mixture of 4-[2-(cyclopropylmethoxy)-4-methoxyphenyl]-N{(3R,4R)-4-hydroxy-1-[(2S)-2-hydroxypropanoyl]pyrrolidin-3-yl}-6-methyl-5H-pyrrolo[3,2-d]pyrimidine-7-carboxamide and 4-[2-(cyclopropylmethoxy)-4-methoxyphenyl]-N-{(3S,4S)-4-hydroxy-1-[(2S)-2-hydroxypropanoyl]pyrrolidin-3-yl}-6-methyl-5H-pyrrolo[3,2-d]pyrimidine-7-carboxamide], the IC50 was below 1 nM.

With `COc1ccc(OCC2CC2)c(-c2ncnc3c(C(=O)NC4CCN(C(=O)C(C)O)CC4O)c(C)[nH]c23)c1` (mixture of isomers) [Example F50, Diastereomeric mixture of 4-[2-(Cyclopropylmethoxy)-5-methoxyphenyl]-N{(3R,4R)-3-hydroxy-1-[(2S)-2-hydroxypropanoyl]piperidin-4-yl}-6-methyl-5H-pyrrolo[3,2-d]pyrimidine-7-carboxamide and 4-[2-(Cyclopropylmethoxy)-5-methoxyphenyl]-N-{(3S,4S)-3-hydroxy-1-[(2S)-2-hydroxypropanoyl]piperidin-4-yl}-6-methyl-5H-pyrrolo[3,2-d]pyrimidine-7-carboxamide], the IC50 was below 1 nM.

Take `CCc1ccc(OCC2CC2)c(-c2ncnc3c(C(=O)NC4CN(C(=O)C(C)O)CC4O)c(C)[nH]c23)c1` (mixture of isomers) [Example F98, Diastereomeric mixture of 4-[2-(cyclopropylmethoxy)-5-ethylphenyl]-N{(3R,4R)-4-hydroxy-1-[(2S)-2-hydroxypropanoyl]pyrrolidin-3-yl}-6-methyl-5H-pyrrolo[3,2-d]pyrimidine-7-carboxamide and 4-[2-(cyclopropylmethoxy)-5-ethylphenyl]-N-{(3S,4S)-4-hydroxy-1-[(2S)-2-hydroxypropanoyl]pyrrolidin-3-yl}-6-methyl-5H-pyrrolo[3,2-d]pyrimidine-7-carboxamide]: the IC50 was 1 to 10 nM. The same measure for `COc1ccc(OCC2CC2)c(-c2ncnc3c(C(=O)NC4CN(C(=O)C(C)O)CC4O)c(C)[nH]c23)c1` (mixture of isomers) [Example F120, 4-[2-(Cyclopropylmethoxy)-5-methoxyphenyl]-N-{(31R*,4R*)-4-hydroxy-1-[(2S)-2-hydroxypropanoyl]pyrrolidin-3-yl}-6-methyl-5H-pyrrolo[3,2-d]pyrimidine-7-carboxamide]: 1 to 10 nM; for `CC(=O)N1C[C@@H](O)[C@H](NC(=O)c2c(C)[nH]c3c(-c4c(OCC5CC5)ccc5c4OCO5)ncnc23)C1` (relative stereo) [Example E16, N-[(3R*,4R*)-1-acetyl-4-hydroxypyrrolidin-3-yl]-4-[5-(cyclopropylmethoxy)-1,3-benzodioxol-4-yl]-6-methyl-5H-pyrrolo[3,2-d]pyrimidine-7-carboxamide]: below 1 nM; for `CCC(=O)N1C[C@@H](O)[C@H](NC(=O)c2c(C)[nH]c3c(-c4c(OCC5CC5)ccc5c4OCO5)ncnc23)C1` (relative stereo) [Example E17, 4-[5-(Cyclopropylmethoxy)-1,3-benzodioxol-4-yl]-N-[(3R*,4R*)-4-hydroxy-1-propionylpyrrolidin-3-yl]-6-methyl-5H-pyrrolo[3,2-d]pyrimidine-7-carboxamide]: below 1 nM. The same measure for `COCC(=O)N1C[C@@H](O)[C@H](NC(=O)c2c(C)[nH]c3c(-c4c(OCC5CC5)ccc5c4OCO5)ncnc23)C1` (relative stereo) [Example E18, 4-[5-(Cyclopropylmethoxy)-1,3-benzodioxol-4-yl]-N-[(3R*,4R*)-4-hydroxy-1-(methoxyacetyl)pyrrolidin-3-yl]-6-methyl-5H-pyrrolo[3,2-d]pyrimidine-7-carboxamide]: below 1 nM. The same measure for `CC(=O)N1C[C@@H](O)[C@H](NC(=O)c2c(C)[nH]c3c(-c4ccc(F)cc4OCC4CC4)ncnc23)C1` (relative stereo) [Example E31, N-[(3R*,4R*)-1-acetyl-4-hydroxypyrrolidin-3-yl]-4-[2-(cyclopropylmethoxy)-4-fluorophenyl]-6-methyl-5H-pyrrolo[3,2-d]pyrimidine-7-carboxamide]: 1 to 10 nM; for `CCC(=O)N1C[C@@H](O)[C@H](NC(=O)c2c(C)[nH]c3c(-c4ccc(F)cc4OCC4CC4)ncnc23)C1` (relative stereo) [Example E32, 4-[2-(Cyclopropylmethoxy)-4-fluorophenyl]-N-[(3R*,4R*)-4-hydroxy-1-propanoylpyrrolidin-3-yl]-6-methyl-5H-pyrrolo[3,2-d]pyrimidine-7-carboxamide]: 1 to 10 nM. On to `COCC(=O)N1C[C@@H](O)[C@H](NC(=O)c2c(C)[nH]c3c(-c4ccc(F)cc4OCC4CC4)ncnc23)C1` (relative stereo) [Example E33, 4-[2-(Cyclopropylmethoxy)-4-fluorophenyl]-N-[(3R*,4R*)-4-hydroxy-1-(methoxyacetyl)pyrrolidin-3-yl]-6-methyl-5H-pyrrolo[3,2-d]pyrimidine-7-carboxamide], for which the IC50 is 1 to 10 nM. The same measure for `CC(=O)N1CC[C@H](NC(=O)c2c(C)[nH]c3c(-c4ccc(F)cc4OCC4CC4)ncnc23)[C@@H](O)C1` (relative stereo) [Example E34, N-[(3S*,4S*)-1-acetyl-3-hydroxypiperidin-4-yl]-4-[2-(cyclopropylmethoxy)-4-fluorophenyl]-6-methyl-5H-pyrrolo[3,2-d]pyrimidine-7-carboxamide]: below 1 nM; for `CCC(=O)N1CC[C@H](NC(=O)c2c(C)[nH]c3c(-c4ccc(F)cc4OCC4CC4)ncnc23)[C@@H](O)C1` (relative stereo) [Example E35, 4-[2-(Cyclopropylmethoxy)-4-fluorophenyl]-N-[(3S*,4S*)-3-hydroxy-1-propanoylpiperidin-4-yl]-6-methyl-5H-pyrrolo[3,2-d]pyrimidine-7-carboxamide]: below 1 nM; for `COCC(=O)N1CC[C@H](NC(=O)c2c(C)[nH]c3c(-c4ccc(F)cc4OCC4CC4)ncnc23)[C@@H](O)C1` (relative stereo) [Example E36, 4-[2-(Cyclopropylmethoxy)-4-fluorophenyl]-N-[(3S*,4S*)-3-hydroxy-1-(methoxyacetyl)piperidin-4-yl]-6-methyl-5H-pyrrolo[3,2-d]pyrimidine-7-carboxamide]: 1 to 10 nM. The same measure for `CC(=O)N1CC[C@@H](NC(=O)c2c(C)[nH]c3c(-c4cc(F)ccc4OCC4CC4)ncnc23)[C@H](O)C1` (relative stereo) [Example E49, N-[(3R*,4R*)-1-acetyl-3-hydroxypiperidin-4-yl]-4-[2-(cyclopropylmethoxy)-5-fluorophenyl]-6-methyl-5H-pyrrolo[3,2-d]pyrimidine-7-carboxamide]: 1 to 10 nM; for `CCC(=O)N1CC[C@@H](NC(=O)c2c(C)[nH]c3c(-c4cc(F)ccc4OCC4CC4)ncnc23)[C@H](O)C1` (relative stereo) [Example E50, 4-[2-(Cyclopropylmethoxy)-5-fluorophenyl]-N-[(3R*,4R*)-3-hydroxy-1-propanoylpiperidin-4-yl]-6-methyl-5H-pyrrolo[3,2-d]pyrimidine-7-carboxamide]: 1 to 10 nM.

(Values after patent US9376442B2, “Methylpyrrolopyrimidinecarboxamides” (Takeda GmbH, priority 2009, dated 2016).)
